# Measured values: patent US20240207200A1, “USE OF PROPANDIOL MONONITRATE AND LIMONENE FOR REDUCING THE FORMATION OF METHANE EMANATING AND FOR IMPROVING THE DIGESTIBILITY” (DSM IP Assets B.V., priority 2021, published 2024)
# Test system: rumen liquor
# Test: In vitro test for methane production, modified Hohenheim Forage value Test (HFT)
# Type: cell-based
# Conditions: TMR feed, 8 hours at 39° C., average of four to eight experiments
# Experimental: In vitro test for methane production: A modified version of the “Hohenheim Forage value Test (HFT)” was used for testing the effect of specific compounds on the rumen functions mimicked by this in-vitro system.
# Principle: Feed is gadded into a syringe with a composition of rumen liquor and an appropriate mixture of buffers. The solution is incubated at 39° C. After 8 hours the quantity (and composition) of gas phase produced is measured and put into a formula for conversion.
# Sample weighing: The feed stuff (i.e. TMR (44% concentrate, 6% hay, 37% maize silage and 13% grass silage) is sieved to 1 mm and weighed exactly into 64 syringes. 4 of these syringes are the substrate controls, which display the gas production without the effect of the tested compounds. 4 other syringes are positive control (3-NOP, […]). When needed, 4 syringes contain a carrier control (if the test compounds need a carrier). The remaining syringes contain the test substances, by groups of 4 syringes, in the amounts as indicated in table 1.
# • The components are mixed in a Woulff bottle in following order: • 711 ml water • 0.18 ml trace element solution • 355.5 ml buffer solution • 355.5 ml mass element solution • The completed solution is warmed up to 39° C. followed by the addition of 1.83 ml sodium salt solution and the addition of reduction solution at 36° C. • The rumen liquor is added, when the indicator turns colourless.
# Extraction of the rumen liquor: 750 ml of rumen liquor are added to approximately 1,400 ml of medium solution under continued agitation and CO2-gassing.
# Filling the syringes, incubation and determining gas volumes and VFA values: The diluted rumen fluid (24 ml) is added to the glass syringe. The syringes are then incubated for 8 hours at 39° C. under gentle agitation. After 8 hours, the volume of gas produced is measured, and the percentage of methane in the gas phase is determined by gas chromatography.
# The food fermented was artificial TMR (44% concentrate, 6% hay, 37% maize silage and 13% grass silage). […]
Compound,"Total methane change [% vs. control], found (DL 100 μM) [% vs. control]","Total methane change [% vs. control], found (PDMN 5 μM) [% vs. control]","Total methane change [% vs. control], found (PDMN 10 μM) [% vs. control]"
"C=C(C)C1CC=C(C)CC1 [DL, D-Limonene]",−1,–,–
"O=[N+]([O-])OCCCO [PDMN, Propanediol mononitrate]",–,−27,−98
